Data: patent publication US8802597B2, “Herbicidal pyrimidines” (E I du Pont de Nemours and Company, priority 2003, dated 2014)
Like-named read-outs stand apart in the source and are kept apart here.

Columns and labels:
Type in all cases: in vivo
[1] = tested on: Surinam grass (Brachiaria decumbens); experiment: Test B pre/postemergence; conditions: Urochloa decumbens; for pest or weed control at 125 g/ha: 125 g ai/ha; for pest or weed control at 500 g/ha: 500 g ai/ha
Method in brief: (§1)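 Compounds in non-phytotoxic solvent with surfactant applied preemergence to planted seeds or postemergence to plants 2 to 18 cm tall (1- to 4-leaf stage). Greenhouse 13 to 15 days, then visual rating against controls on a 0 to 100 scale (100 = complete control).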

[2] = tested on: barnyardgrass (Echinochloa crus-galli); experiment: Test B pre/postemergence; conditions: Echinochloa crus-galli; for pest or weed control at 125 g/ha: 125 g ai/ha; for pest or weed control at 500 g/ha: 500 g ai/ha
Method in brief: as §1

[3] = tested on: cocklebur (Xanthium strumarium); experiment: Test B pre/postemergence; conditions: Xanthium strumarium; for pest or weed control at 125 g/ha: 125 g ai/ha; for pest or weed control at 500 g/ha: 500 g ai/ha
Method in brief: as §1

corn (Zea mays) = experiment: Test B pre/postemergence; conditions: Zea mays
Method in brief: as §1

[4] = tested on: crabgrass (Digitaria sanguinalis); experiment: Test B pre/postemergence; conditions: Digitaria sanguinalis; for pest or weed control at 125 g/ha: 125 g ai/ha; for pest or weed control at 500 g/ha: 500 g ai/ha
Method in brief: as §1

[5] = tested on: giant foxtail (Setaria faberii); experiment: Test B pre/postemergence; conditions: Setaria faberi; for pest or weed control at 125 g/ha: 125 g ai/ha; for pest or weed control at 500 g/ha: 500 g ai/ha
Method in brief: as §1

[6] = tested on: lambsquarters (Chenopodium album); experiment: Test B pre/postemergence; conditions: Chenopodium album; for pest or weed control at 125 g/ha: 125 g ai/ha; for pest or weed control at 500 g/ha: 500 g ai/ha
Method in brief: as §1

[7] = tested on: morningglory (Ipomoea coccinea); experiment: Test B pre/postemergence; conditions: Ipomoea; for pest or weed control at 125 g/ha: 125 g ai/ha; for pest or weed control at 500 g/ha: 500 g ai/ha
Method in brief: as §1

[8] = tested on: pigweed (Amaranthus retroflexus); experiment: Test B pre/postemergence; conditions: Amaranthus retroflexus; for pest or weed control at 125 g/ha: 125 g ai/ha; for pest or weed control at 500 g/ha: 500 g ai/ha
Method in brief: as §1

[9] = tested on: velvetleaf (Abutilon theophrasti); experiment: Test B pre/postemergence; conditions: Abutilon theophrasti; for pest or weed control at 125 g/ha: 125 g ai/ha; for pest or weed control at 500 g/ha: 500 g ai/ha
Method in brief: as §1

[10] = tested on: wheat (Triticum aestivum); experiment: Test B pre/postemergence; conditions: Triticum aestivum; for plant injury at 125 g/ha: 125 g ai/ha; for plant injury at 500 g/ha: 500 g ai/ha
Method in brief: as §1

[11] = tested on: blackgrass (Alopecurus myosuroides); experiment: Test B postemergence; conditions: Alopecurus myosuroides, post-emergence
Method in brief: as §1

wild oat (Avena fatua) = experiment: Test B postemergence; conditions: Avena fatua, post-emergence
Method in brief: as §1

[12] = tested on: barnyardgrass (Echinochloa crus-galli); experiment: Test B flooded paddy test; conditions: Echinochloa crus-galli, Flood, 1000 g ai/ha; scale 0 (no effect) to 100 (complete control); read-out: Plant response rating, Barnyardgrass
Method in brief: (§2)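 Rice, umbrella sedge, duck salad and barnyardgrass grown to 2-leaf stage under flooded paddy conditions and treated with formulated test chemicals. Kept in greenhouse 13–15 days, then visually rated against untreated controls on a 0–100 scale (0 no effect, 100 complete control).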

[13] = tested on: duck salad (Heteranthera limosa); experiment: Test B flooded paddy test; conditions: Heteranthera limosa, Flood, 1000 g ai/ha; scale 0 to 100; read-out: Plant response rating, Ducksalad
Method in brief: as §2

rice (Oryza sativa) = experiment: Test B flooded paddy test; conditions: Oryza sativa, Flood, 1000 g ai/ha; scale 0 to 100; read-out: Plant response rating, Rice
Method in brief: as §2

[14] = tested on: umbrella sedge (Cyperus difformis); experiment: Test B flooded paddy test; conditions: Cyperus difformis, Flood, 1000 g ai/ha; scale 0 to 100; read-out: Plant response rating, Sedge, Umbrella
Method in brief: as §2

Compound: CCOC(=O)c1nc(-c2ccccc2)nc(N)c1Br [Compound 18]
- pest or weed control at 125 g/ha ([1]; post-emergence, Postemergence, scale 0 to 100 (0 no effect, 100 complete control), read-out: Surinam Grass plant response rating): 0%
- pest or weed control at 500 g/ha ([1]; post-emergence, Postemergence, scale 0 to 100, read-out: Plant response rating, Surinam Grass): 0%
- pest or weed control at 125 g/ha ([1]; pre-emergence, Preemergence, scale 0 to 100 (0 no effect, 100 complete control), read-out: Plant response rating, Surinam Grass): 0%
- pest or weed control at 500 g/ha ([1]; pre-emergence, Preemergence, scale 0 to 100 (0 no effect, 100 complete control), read-out: Surinam Grass plant response rating): 0%
- pest or weed control at 125 g/ha ([2]; post-emergence, Postemergence, scale 0 to 100 (0 no effect, 100 complete control), read-out: Barnyardgrass plant response rating): 0%
- pest or weed control at 500 g/ha ([2]; post-emergence, Postemergence, scale 0 to 100, read-out: Plant response rating, Barnyardgrass): 0%
- pest or weed control at 125 g/ha ([2]; pre-emergence, Preemergence, scale 0 to 100 (0 no effect, 100 complete control), read-out: Plant response rating, Barnyardgrass): 0%
- pest or weed control at 500 g/ha ([2]; pre-emergence, Preemergence, scale 0 to 100 (0 no effect, 100 complete control), read-out: Barnyardgrass plant response rating): 0%
- pest or weed control at 125 g/ha ([3]; post-emergence, Postemergence, scale 0 to 100 (0 no effect, 100 complete control), read-out: Cocklebur plant response rating): 70%
- pest or weed control at 500 g/ha ([3]; post-emergence, Postemergence, scale 0 to 100, read-out: Plant response rating, Cocklebur): 70%
- pest or weed control at 125 g/ha ([3]; pre-emergence, Preemergence, scale 0 to 100 (0 no effect, 100 complete control), read-out: Plant response rating, Cocklebur): 10%
- pest or weed control at 500 g/ha ([3]; pre-emergence, Preemergence, scale 0 to 100 (0 no effect, 100 complete control), read-out: Cocklebur plant response rating): 40%
- plant injury at 125 g/ha (corn (Zea mays); post-emergence, Postemergence, 125 g ai/ha, scale 0 to 100 (0 no effect, 100 complete control), read-out: Corn plant response rating): 0%
- Corn plant response rating (crop injury, 0 = no effect, 100 = complete kill) at 500 g/ha (corn (Zea mays); post-emergence, Postemergence, 500 g ai/ha, scale 0 to 100): 0%
- Corn plant response rating (crop injury, 0 = no effect, 100 = complete kill) at 125 g/ha (corn (Zea mays); pre-emergence, Preemergence, 125 g ai/ha, scale 0 to 100 (0 no effect, 100 complete control)): 0%
- plant injury at 500 g/ha (corn (Zea mays); pre-emergence, Preemergence, 500 g ai/ha, scale 0 to 100 (0 no effect, 100 complete control), read-out: Corn plant response rating): 0%
- pest or weed control at 125 g/ha ([4]; post-emergence, Postemergence, scale 0 to 100 (0 no effect, 100 complete control), read-out: Crabgrass plant response rating): 0%
- pest or weed control at 500 g/ha ([4]; post-emergence, Postemergence, scale 0 to 100, read-out: Plant response rating, Crabgrass): 0%
- pest or weed control at 125 g/ha ([4]; pre-emergence, Preemergence, scale 0 to 100 (0 no effect, 100 complete control), read-out: Plant response rating, Crabgrass): 0%
- pest or weed control at 500 g/ha ([4]; pre-emergence, Preemergence, scale 0 to 100 (0 no effect, 100 complete control), read-out: Crabgrass plant response rating): 0%
- pest or weed control at 125 g/ha ([5]; post-emergence, Postemergence, scale 0 to 100 (0 no effect, 100 complete control), read-out: Foxtail, Giant plant response rating): 0%
- pest or weed control at 500 g/ha ([5]; post-emergence, Postemergence, scale 0 to 100, read-out: Plant response rating, Foxtail, Giant): 0%
- pest or weed control at 125 g/ha ([5]; pre-emergence, Preemergence, scale 0 to 100 (0 no effect, 100 complete control), read-out: Plant response rating, Foxtail, Giant): 0%
- pest or weed control at 500 g/ha ([5]; pre-emergence, Preemergence, scale 0 to 100 (0 no effect, 100 complete control), read-out: Foxtail, Giant plant response rating): 0%
- pest or weed control at 125 g/ha ([6]; post-emergence, Postemergence, scale 0 to 100 (0 no effect, 100 complete control), read-out: Lambsquarters plant response rating): 70%
- pest or weed control at 500 g/ha ([6]; post-emergence, Postemergence, scale 0 to 100, read-out: Plant response rating, Lambsquarters): 90%
- pest or weed control at 125 g/ha ([6]; pre-emergence, Preemergence, scale 0 to 100 (0 no effect, 100 complete control), read-out: Plant response rating, Lambsquarters): 10%
- pest or weed control at 500 g/ha ([6]; pre-emergence, Preemergence, scale 0 to 100 (0 no effect, 100 complete control), read-out: Lambsquarters plant response rating): 60%
- pest or weed control at 125 g/ha ([7]; post-emergence, Postemergence, scale 0 to 100 (0 no effect, 100 complete control), read-out: Morningglory plant response rating): 20%
- pest or weed control at 500 g/ha ([7]; post-emergence, Postemergence, scale 0 to 100, read-out: Plant response rating, Morningglory): 70%
- pest or weed control at 125 g/ha ([7]; pre-emergence, Preemergence, scale 0 to 100 (0 no effect, 100 complete control), read-out: Plant response rating, Morningglory): 0%
- pest or weed control at 500 g/ha ([7]; pre-emergence, Preemergence, scale 0 to 100 (0 no effect, 100 complete control), read-out: Morningglory plant response rating): 0%
- pest or weed control at 125 g/ha ([8]; post-emergence, Postemergence, scale 0 to 100 (0 no effect, 100 complete control), read-out: Pigweed plant response rating): 20%
- pest or weed control at 500 g/ha ([8]; post-emergence, Postemergence, scale 0 to 100, read-out: Plant response rating, Pigweed): 70%
- pest or weed control at 125 g/ha ([8]; pre-emergence, Preemergence, scale 0 to 100 (0 no effect, 100 complete control), read-out: Plant response rating, Pigweed): 0%
- pest or weed control at 500 g/ha ([8]; pre-emergence, Preemergence, scale 0 to 100 (0 no effect, 100 complete control), read-out: Pigweed plant response rating): 70%
- pest or weed control at 125 g/ha ([9]; post-emergence, Postemergence, scale 0 to 100 (0 no effect, 100 complete control), read-out: Velvetleaf plant response rating): 20%
- pest or weed control at 500 g/ha ([9]; post-emergence, Postemergence, scale 0 to 100, read-out: Plant response rating, Velvetleaf): 50%
- pest or weed control at 125 g/ha ([9]; pre-emergence, Preemergence, scale 0 to 100 (0 no effect, 100 complete control), read-out: Plant response rating, Velvetleaf): 0%
- pest or weed control at 500 g/ha ([9]; pre-emergence, Preemergence, scale 0 to 100 (0 no effect, 100 complete control), read-out: Velvetleaf plant response rating): 40%
- plant injury at 125 g/ha ([10]; post-emergence, Postemergence, scale 0 to 100 (0 no effect, 100 complete control), read-out: Wheat plant response rating): 0%
- plant injury at 500 g/ha ([10]; post-emergence, Postemergence, scale 0 to 100, read-out: Plant response rating, Wheat): 0%
- plant injury at 125 g/ha ([10]; pre-emergence, Preemergence, scale 0 to 100 (0 no effect, 100 complete control), read-out: Plant response rating, Wheat): 0%
- plant injury at 500 g/ha ([10]; pre-emergence, Preemergence, scale 0 to 100 (0 no effect, 100 complete control), read-out: Wheat plant response rating): 0%
- pest or weed control at 125 g/ha ([11]; 125 g ai/ha, scale 0 to 100 (0 no effect, 100 complete control), read-out: Blackgrass plant response rating): 0%
- pest or weed control at 500 g/ha ([11]; 500 g ai/ha, scale 0 to 100, read-out: Plant response rating, Blackgrass): 0%
- pest or weed control at 125 g/ha (wild oat (Avena fatua); 125 g ai/ha, scale 0 to 100 (0 no effect, 100 complete control), read-out: Oat, Wild plant response rating): 0%
- pest or weed control at 500 g/ha (wild oat (Avena fatua); 500 g ai/ha, scale 0 to 100, read-out: Plant response rating, Oat, Wild): 0%
- pest or weed control at 1000 g/ha [12]: 0%
- pest or weed control at 1000 g/ha [13]: 80%
- plant injury at 1000 g/ha (rice (Oryza sativa)): 0%
- pest or weed control at 1000 g/ha [14]: 0%
